Experimental data reported in US11213577B2, “Treatment of cancer using recall antigens delivered by attenuated bacteria” (ALBERT EINSTEIN COLLEGE OF MEDICINE, INC., priority 2015, dated 2022).

How the values were obtained:
CD4 and CD8 T cells [1] = assay: CD4 and CD8 T cell responses in spleens of Panc-02 mice by flow cytometry; assay type: in vivo; settings: spleens of 3 mice pooled
CD4 and CD8 T cells [2] = assay: CD4 and CD8 T cell responses in spleen of KPC mice by flow cytometry; assay type: in vivo
MDSC (CD11b+Gr1+) = assay: Analysis of MDSC (CD11b+Gr1+) in blood of Panc-02 mice by flow cytometry; assay type: in vivo
Experimental: (§1) FIG. 7A-7B. […] C57B16 mice were challenged with Panc-02 tumor cells and treated with Listeria-TT+GEM as described in FIG. 7A. Two days after the last treatment the percentage of MDSC (CD11b+Gr1+) was determined in blood by flow cytometry. N=5 mice per group. Representative of two experiments. […] C57B16 mice were challenged with Panc-02 tumor cells and treated with Listeria-TT+GEM as described in FIG. 7A. Two days after the last treatment the percentage of TAM (CD11b+F4/80+) was determined in the primary tumors by flow cytometry. N=5 mice per group. Representative of two experiments. The error bars represent SEM.
(§2) Panc-02 mice with advanced pancreatic cancer were treated with one high and multiple low doses of Listeria-TT (LM-TT) and GEM as described in FIG. 7A. MDSC and TAM were analyzed in the metastases by flow cytometry. Metastases of 3 mice were pooled. This experiment was performed once.

TAM (CD11b+F4/80+) = assay: Analysis of TAM (CD11b+F4/80+) in metastases of Panc-02 mice by flow cytometry; assay type: in vivo
Experimental: as §1, §2

CD8 T cells = assay: CD8 T cell responses to immunodominant TT epitope after immunization; assay type: in vivo, BALB/cByJ mice; settings: three immunizations with TT856-1313 protein and CpG, blood, restimulated with […]
[3] = TAM in metastases, 3 mice pooled

## Nc1ccn([C@@H]2O[C@H](CO)[C@@H](O)C2(F)F)c(=O)n1 [GEM, gemcitabine]
CD4 and CD8 T cells [1]
  CD3CD4CD69: 14.2 Percentage
  CD3CD4Granzyme B: 4.8 Percentage
  CD3CD4IFNγ: 2.7 Percentage
  CD3CD4Perforin: 14.9 Percentage
  CD3CD8CD69: 15.5 Percentage
  CD3CD8Granzyme B: 1.1 Percentage
  CD3CD8IFNγ: 0.4 Percentage
  CD3CD8Perforin: 4.8 Percentage
CD4 and CD8 T cells [2]
  CD3CD4CD69: 10.01 Percentage
  CD3CD4Granzyme B: 3.5 Percentage
  CD3CD4IFNγ: 0.0 Percentage
  CD3CD4Perforin: 7.90 Percentage
  CD3CD8CD69: 17.5 Percentage
  CD3CD8Granzyme B: 9.71 Percentage
  CD3CD8IFNγ: 1.7 Percentage
  CD3CD8Perforin: 15.60 Percentage
MDSC (CD11b+Gr1+); MDSC in blood
  CD80, Percentage of MDSC (CD11b+Gr1+) in Blood: 1.78 Percentage
  IL-6, Percentage of MDSC (CD11b+Gr1+) in Blood: 3.59 Percentage
  IL-10, Percentage of MDSC (CD11b+Gr1+) in Blood: 2.76 Percentage
  MARCO, Percentage of MDSC (CD11b+Gr1+) in Blood: 3.84 Percentage
  TNFα, Percentage of MDSC (CD11b+Gr1+) in Blood: 8.49 Percentage
MDSC (CD11b+Gr1+); two days after last treatment
  MDSC population in blood: reduces the MDSC population
TAM (CD11b+F4/80+); [3]
  CD80, Percentage of TAM (CD11b+F4/80+) in Metastases: 4.28 Percentage
  IL-6, Percentage of TAM (CD11b+F4/80+) in Metastases: 1.25 Percentage
  IL-10, Percentage of TAM (CD11b+F4/80+) in Metastases: 1.47 Percentage
  MARCO, Percentage of TAM (CD11b+F4/80+) in Metastases: 1.94 Percentage
  TNFα, Percentage of TAM (CD11b+F4/80+) in Metastases: 8.85 Percentage
TAM (CD11b+F4/80+); two days after last treatment
  TAM population in metastases: reduces the TAM population

B1: TT856-1313 protein: purified non-toxic C-terminal fragment of tetanus toxoid, amino acid positions 856-1313 (protein, UniProt P04958 856-1313, looked up, fragment)
chain: STPIPFSYSKNLDCWVDNEEDIDVILKKSTILNLDINNDIISDISGFNSSVITYPDAQLVPGINGKAIHLVNNESSEVIVHKAMDIEYNDMFNNFTVSFWLRVPKVSASHLEQYGTNEYSIISSMKKHSLSIGSGWSVSLKGNNLIWTLKDSAGEVRQITFRDLPDKFNAYLANKWVFITITNDRLSSANLYINGVLMGSAEITGLGAIREDNNITLKLDRCNNNNQYVSIDKFRIFCKALNPKEIEKLYTSYLSITFLRDFWGNPLRYDTEYYLIPVASSSKDVQLKNITDYMYLTNAPSYTNGKLNIYYRRLYNGLKFIIKRYTPNNEIDSFVKSGDFIKLYVSYNNNEHIVGYPKDGNAFNNLDRILRVGYNAPGIPLYKKMEAVKLRDLKTYSVQLKLYDDKNASLGLVGTHNGQIGNDPNRDILIASNWYFNHLKDKILGCDWYFVPTDEGWT
CD8 T cells
  CD8 T cell responses to immunodominant epitope: CD8 T cells were activated
